Assay results: BindingDB's records for doi:10.1006/bbrc.1993.2130 (National Children's Medical Research Center, 1993)

biological target: T1, Alpha-1A adrenergic receptor (Homo sapiens, UniProt P35348)
T1 sequence (P35348 whole entry): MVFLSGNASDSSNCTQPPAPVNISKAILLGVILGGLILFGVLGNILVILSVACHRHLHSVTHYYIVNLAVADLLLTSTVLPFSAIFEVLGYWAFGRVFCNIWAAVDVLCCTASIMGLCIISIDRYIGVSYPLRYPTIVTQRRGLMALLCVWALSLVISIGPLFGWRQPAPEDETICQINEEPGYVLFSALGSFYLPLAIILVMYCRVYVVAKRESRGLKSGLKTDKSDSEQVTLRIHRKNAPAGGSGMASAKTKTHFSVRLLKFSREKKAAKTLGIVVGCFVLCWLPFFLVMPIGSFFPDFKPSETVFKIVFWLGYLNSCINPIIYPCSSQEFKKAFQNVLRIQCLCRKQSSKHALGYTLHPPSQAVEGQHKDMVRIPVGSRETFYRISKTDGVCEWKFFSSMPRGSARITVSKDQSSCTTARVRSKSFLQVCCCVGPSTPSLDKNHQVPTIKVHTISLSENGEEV

Question: Which Ki does the source give for COc1cccc(OC)c1OCCNCC1Oc2ccccc2OC1c1ccccc1 (stereo not drawn) [NSC_185453] here?
Answer: 0.23 nM

Question: With COc1ccc(OC)c(C(O)C(C)N)c1 (stereo not drawn) as the compound, how does the Ki read?
Answer: > 10000 nM

Question: For COc1ccccc1N1CCN(CCCNc2c(C)c(=O)n(C)c(=O)n2C)CC1 [Urapidil-5-methyl], which Ki is on record?
Answer: 4.2 nM
